# Data published in PubChem BioAssay (NCI).
#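 Interpolation was linear, between the two tested concentrations surrounding the appropriate level; five concentrations were tested over 48 hours in 96-well plates. Here, GI50 denotes the concentration required for 50% inhibition of growth. TGI: total growth inhibition.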
# Legend:
# Experiment in all cases: NCI anticancer screen, dose series, 48 h
# UO-31 renal = test system: UO-31 renal
# HCT-116 colon = test system: HCT-116 colon
# SF-539 CNS = test system: SF-539 CNS
# RPMI-8226 leukemia = test system: RPMI-8226 leukemia
# MOLT-4 leukemia = test system: MOLT-4 leukemia
# A498 renal = test system: A498 renal
# NCI-H522 lung = test system: NCI-H522 lung
# EKVX NSCLC = test system: EKVX NSCLC
# OVCAR-5 ovarian = test system: OVCAR-5 ovarian
# KM12 colon = test system: KM12 colon
# SR leukemia = test system: SR leukemia
# CCRF-CEM leukemia = test system: CCRF-CEM leukemia
# UACC-257 melanoma = test system: UACC-257 melanoma
# ACHN renal = test system: ACHN renal
# M14 melanoma = test system: M14 melanoma
# HOP-62 NSCLC = test system: HOP-62 NSCLC
# NCI-H226 lung = test system: NCI-H226 lung
# CAKI-1 renal = test system: CAKI-1 renal
# NCI-H23 lung = test system: NCI-H23 lung
# K-562 leukemia = test system: K-562 leukemia
# SNB-75 CNS = test system: SNB-75 CNS
# BT-549 breast = test system: BT-549 breast
# HCT-15 colon = test system: HCT-15 colon
# LOX IMVI melanoma = test system: LOX IMVI melanoma
# UACC-62 melanoma = test system: UACC-62 melanoma
# SF-268 CNS = test system: SF-268 CNS
# NCI-H460 lung = test system: NCI-H460 lung
# DU-145 prostate = test system: DU-145 prostate
# HL-60(TB) leukemia = test system: HL-60(TB) leukemia
structure (smiles),measurement,setting,value
Oc1[nH]c2ccc(Cl)cc2c1/C=c1/ccc2c(c1)N=C(c1ccc(F)cc1)N=2,TGI,UO-31 renal,11 µM
same,GI50,HCT-116 colon,1.49 µM
same,TGI,HCT-116 colon,2.81 µM
same,GI50,SF-539 CNS,2.24 µM
same,TGI,SF-539 CNS,5 µM
same,GI50,RPMI-8226 leukemia,2.91 µM
same,TGI,RPMI-8226 leukemia,12.2 µM
same,GI50,MOLT-4 leukemia,2.52 µM
same,TGI,MOLT-4 leukemia,7.1 µM
same,GI50,A498 renal,3.36 µM
same,TGI,A498 renal,16.5 µM
same,GI50,NCI-H522 lung,1.99 µM
same,TGI,NCI-H522 lung,4.32 µM
same,GI50,EKVX NSCLC,3.37 µM
same,TGI,EKVX NSCLC,15.9 µM
same,GI50,OVCAR-5 ovarian,4.17 µM
same,TGI,OVCAR-5 ovarian,14.7 µM
same,GI50,KM12 colon,2.54 µM
same,TGI,KM12 colon,6.53 µM
same,GI50,SR leukemia,2.11 µM
same,TGI,SR leukemia,5.14 µM
same,GI50,CCRF-CEM leukemia,2.07 µM
same,TGI,CCRF-CEM leukemia,4.93 µM
same,GI50,UACC-257 melanoma,1.89 µM
same,TGI,UACC-257 melanoma,4.35 µM
same,GI50,ACHN renal,3.19 µM
same,TGI,ACHN renal,11.9 µM
same,GI50,M14 melanoma,1.52 µM
same,TGI,M14 melanoma,2.98 µM
same,GI50,HOP-62 NSCLC,1.77 µM
same,TGI,HOP-62 NSCLC,3.23 µM
same,GI50,NCI-H226 lung,8.22 µM
same,TGI,NCI-H226 lung,23.2 µM
same,GI50,CAKI-1 renal,4.08 µM
same,TGI,CAKI-1 renal,20.3 µM
same,GI50,NCI-H23 lung,1.65 µM
same,TGI,NCI-H23 lung,3.59 µM
same,GI50,K-562 leukemia,2.11 µM
same,TGI,K-562 leukemia,4.48 µM
same,GI50,SNB-75 CNS,1.5 µM
same,TGI,SNB-75 CNS,3.78 µM
same,GI50,BT-549 breast,1.38 µM
same,TGI,BT-549 breast,3.11 µM
same,GI50,HCT-15 colon,2.04 µM
same,TGI,HCT-15 colon,4.47 µM
same,GI50,LOX IMVI melanoma,1.63 µM
same,TGI,LOX IMVI melanoma,3.01 µM
same,GI50,UACC-62 melanoma,2.5 µM
same,TGI,UACC-62 melanoma,8.06 µM
same,GI50,SF-268 CNS,2.16 µM
same,TGI,SF-268 CNS,4.37 µM
same,GI50,NCI-H460 lung,2.05 µM
same,TGI,NCI-H460 lung,4.52 µM
same,GI50,DU-145 prostate,2.53 µM
same,TGI,DU-145 prostate,5.06 µM
same,GI50,HL-60(TB) leukemia,2.76 µM
same,TGI,HL-60(TB) leukemia,7.83 µM
